# Assay results as given in US8563555B2, “Pharmaceutical compositions containing a crystalline form of posaconazole” (Sandoz AG, priority 2008, dated 2013).
# “And” between values parts separate entries of the source, which are not always exact repeats. Equal values may be shown once.
# Key:
# [1] = Specific surface measurement, BET method; type: physicochemical; conditions: for Specific Surface: nitrogen at 77° K, non-micronized
# Experimental: Specific surface measurement was performed with the equipment NOVA 2000 as commercially available from Quantachrome Instruments using the BET method and Nitrogen as the absorbed gas at 77° K (i.e. −196.15° C.) as described e.g. by Medema J, Campagne A.: A Simple Method to Determine Cumulative Surface-Area Distributions of Porous Solids; Journal of Catalysis, Volume 8, Issue 2, pp. 120, 1967.
# [2] = Particle size distribution (Malvern, laser diffraction) in suspension; type: physicochemical; conditions: for Mean particle size (D4,3-value) / Median particle size (d (0.5)-value): non-micronized form, in suspension, after 5 min ultrasonic treatment
# Experimental: Crystalline form Y in a non-micronized form as obtained by Example 1 was used to prepare 25 ml of a suspension as follows:
# The suspension was prepared analogously to the method described in Example 6 up to and including the addition of glycerol and liquid glucose. Subsequently, titanium oxide was added under mixing with a suitable homogenizer, followed by the addition of the cherry flavour and of the remaining portion of 56% of the final amount of purified water under mixing until a uniform suspension was obtained.
# 25 ml of a similar suspension, but without cherry flavour and using 12.148 g of purified water, was prepared analoguously using non-micronized crystalline form I of posaconazole.
# The particle size distribution (Malvern) was measured according to the USP <429> and EP 2.9.31. based on the diffraction of laser by particles using a Mastersizer 2000S liquid dispersion system. The particle size measurement was started after ultrasonic treatment of the sample for 5 min.
# [3] = Equilibrium solubility method in water; type: physicochemical
# Experimental: The solubility of form Y was determined by the equilibrium solubility method, which employed a saturated solution of form Y, obtained by stirring 250 mg form Y in 6 ml water over night. The sample was filtered through a 0.45 μm membrane filter and the concentration of form Y in the filtrate was measured using a Perkin Elmer Lambda 35 UV/VIS spectrophotometer (λ=260 nm).
# [4] = Moisture sorption isotherm; type: physicochemical; conditions: 0-95% RH, 25° C.
# Experimental: The moisture sorption isotherm was recorded with a SPS-11 moisture sorption analyzer (MD Mess-technik, Ulm, D). The measurement cycle was started at 0% relative humidity (RH), increased in 10% steps up to 90% RH and in a 5% step up to 95% RH. The equilibrium condition for each step was set to a constant mass ±0.003% over 49 min. The temperature was 25±0.1° C.
# [5] = Stability of form Y within a pharmaceutical formulation (XRPD); type: physicochemical; conditions: suspension stored at room temperature for 7 weeks
# Experimental: 25 ml of a suspension containing form Y were prepared as follows:
# 40% of the final amount of Polysorbat 80 and 40% of the final amount of simethicon were mixed and dissolved and/or dispersed in about 12% of the final amount of purified water and homogenized with Ultra Turrax (30 seconds; 27,000 rpm). Subsequently, 1 g of form Y of posaconazole were suspended or dispersed in this mixture under homogenization by Ultra Turrax (27,000 rpm, 2 minutes). The remaining 60% of Polysorbat 80 and of simethicon and 32% of the final amount of the purified water were added and mixed followed by the addition of sodium benzoate, sodium citrate dehydrate and citric acid monohydrate. After further mixing, xanthan gum was added to the mixture under stirring, followed by a 30 minutes phase of hydratization without mixing. Subsequently, glycerol and liquid glucose and of the remaining portion of 56% of the final amount of purified water were added under mixing until a uniform suspension was obtained.
# This suspension was stored at room temperature for 7 weeks. A sample of approximately 1 g of the suspension was dried under vacuum over night at room temperature. […]
# [6] = Dissolution from suspension, USP <711> apparatus II; type: physicochemical; conditions: suspension of Example 7, paddle 25 rpm, 0.3% SLS aqueous solution
# Experimental: Non-micronized form Y and non-micronized form I were incorporated into formulations having compositions and being prepared according to Example 7.
# Dissolution of Form Y and Form I from those formulations was tested according to USP 32 (2009) method <711> (USP apparatus II (Paddle); 25 rpm; dissolution medium: 0.3% SLS aqueous solution). Posaconzole concentrations were determined with an online photometer (UV absorption at 260 nm).
# [7] = Solid state stability of form Y (HPLC assay, polymorphic form); type: physicochemical
# Experimental: HPLC assay was performed by applying the following conditions: • Column: ZORBAX XDB-C18 Rapid Resolution HT, 1.8 μm, 50×4.6 mm (Agilent Technologies) • Eluent A: Dilute 2 ml of acetic acid (99-100%) with water and fill up to 1000 ml with water. Adjust pH to 6.5 with 2.5% ammonia. • Eluent B: water/acetonitrile=50/50 (v/v) • Flow rate: 0.8 ml/min • Temperature: 40° C. • Detection: UV at 260 nm • Gradient:
# The solid state stability of form Y was determined by storing approximately 1.0 g of the material in a glass bottle at a) 60° C./100% Relative Humidity (RH), open exposure, for 24 hours and b) at 140° C., closed, for 3 days.
# The material was assayed by HPLC for final content and degradation products.
# [8] = Stability of an aqueous suspension of form Y; type: physicochemical; conditions: 120 mg in 3 ml water, room temperature, 4 days
# Experimental: 120 mg form Y were suspended in 3 ml water and the suspension was stirred at room temperature.
# [9] = cited from earlier work
# [10] = listed as crystalline form Y of posaconazole
# [11] = 60° C./100% RH, open exposure, 24 hours
smiles,measurement,setting,value
"CC[C@@H]([C@H](C)O)n1ncn(-c2ccc(N3CCN(c4ccc(OC[C@@H]5CO[C@@](Cn6cncn6)(c6ccc(F)cc6F)C5)cc4)CC3)cc2)c1=O [Crystalline Form I, posaconazole]",Specific Surface,[1]; listed as Crystalline Form I of posaconazole,1.5 m^2/g and 1.6 m^2/g
same,"Mean particle size (D4,3-value)",[2],35.1 μm
same,Median particle size (d (0.5)-value),[2],31.3 μm
"CC[C@@H]([C@H](C)O)n1ncn(-c2ccc(N3CCN(c4ccc(OC[C@@H]5CO[C@@](Cn6cncn6)(c6ccc(F)cc6F)C5)cc4)CC3)cc2)c1=O [Crystalline Form Y, posaconazole]",water solubility of form Y relative to form I (times higher),[3],about two
same,solubility,"[3]; thermodynamic from solid, saturated solution stirred over night, 0.45 μm filtrate, UV 260 nm",1.5 µg/mL
same,water uptake,[4],≤ 0.4%
same,fold larger specific area compared to crystalline form I,[1],about 2.4 fold
same,Specific Surface,[1]; listed as Crystalline Form Y of posaconazole,3.6 m^2/g and 3.7 m^2/g
same,Specific Surface,[1]; [10],about 4±1 m^2/g
same,polymorphic conversion in suspension (XRPD),[5],no conversion to another polymorphic form had occurred
same,fold smaller mean particle size compared to non-micronized form I,[2]; non-micronized,about 4 fold
same,fold smaller median particle size compared to non-micronized form I,[2]; non-micronized,about 5 fold
same,"Mean particle size (D4,3-value)",[2],9.9 μm
same,Median particle size (d (0.5)-value),[2],6.0 μm
same,"Mean particle size (D4,3-value)",[2]; [10],about 10±2 μm
same,Median particle size (d (0.5)-value),[2]; [10],about 6±2 μm
same,dissolution compared to non-micronized form I,[6],clearly faster dissolution
same,HPLC assay (% initial),[7]; [11],99.9%
same,degradation,[7]; [11],No significant degradation observed
same,HPLC assay (% initial),"[7]; 140° C., closed, 3 days",99.9%
same,degradation,"[7]; 140° C., closed, 3 days",No significant degradation observed
same,polymorphic conversion,"[7]; 24 hours at 100% RH, 60° C.",not converted into another polymorphic form
same,physicochemical properties of the solid after stirring in water,[8],the same as the physicochemical properties of form Y obtained in Example 1
"CC[C@@H]([C@H](C)O)n1ncn(-c2ccc(N3CCN(c4ccc(OC[C@@H]5CO[C@@](Cn6cncn6)(c6ccc(F)cc6F)C5)cc4)CC3)cc2)c1=O [posaconazole, 2,5-anhydro-1,3,4-trideoxy-2-C-(2,4-difluorophenyl)-4-[[4-[4-[4-[1-[(1S,2S)-1-ethyl-2-hydroxypropyl]-1,5-dihydro-5-oxo-4H-1,2,4-triazol-4-yl]phenyl]-1-piperazinyl]phenoxy]methyl]-1-(1H-1,2,4-triazol-1-yl)-D-threopentitol]",log P,[9],> 3
